Several values for one entry are separate records, joined by “and”; a condition that tells them apart may be missing. Equal values may be shown once. Inconclusive results and toxic doses are left out.
Tested on: L1210 leukemia ip in BDF1 mice, survival T/C
Test: NCI In Vivo Anticancer Drug Screen. Data for tumor model L1210 Leukemia (intraperitoneal) in B6D2F1 (BDF1) mice
Settings: endpoint: mean survival time, higher = longer survival
Outline: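 Value reflects the ratio of survival in compound-treated mice to survival in vehicle-treated controls, with both groups carrying the same transplanted tumor.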

How did the T/C (dose: 14.0 mg/kg/injection, schedule: Q## X032 (ip), vehicle: carboxymethylcellulose (CMC)) turn out when Nc1nc(=S)c2ncn(C3OC(CO)C(O)C3O)c2[nH]1 (stereo not given) was run?
The T/C was 155 % of control.

And the T/C (dose: 16.0 mg/kg/injection, schedule: Q01DX009 (ip), vehicle: saline)?
Its T/C is 104 % of control.

And the T/C (dose: 16.8 mg/kg/injection, schedule: Q01DX Z (oral), vehicle: carboxymethylcellulose (CMC))?
Its T/C is 108 % of control.

What about the T/C (dose: 18.8 mg/kg/injection, schedule: Q01DX009 (ip), vehicle: saline) of the same compound?
Its T/C is 119 % of control.

What about the T/C (dose: 18.8 mg/kg/injection, schedule: Q01DX Z (ip), vehicle: saline) of the same compound?
The T/C was 103 % of control.

And the T/C (dose: 20.0 mg/kg/injection, schedule: Q01DX Z (ip), vehicle: saline)?
The T/C was 109 % of control.

And the T/C (dose: 20.0 mg/kg/injection, schedule: Q01DX Z (oral), vehicle: carboxymethylcellulose (CMC))?
The T/C was 122 % of control.

And the T/C (dose: 22.0 mg/kg/injection, schedule: Q## X032 (ip), vehicle: carboxymethylcellulose (CMC))?
The T/C was 155 % of control.

What about the T/C (dose: 22.5 mg/kg/injection, schedule: Q01DX001 (oral), vehicle: carboxymethylcellulose (CMC)) of the same compound?
Its T/C is 154 % of control.

What about the T/C (dose: 25.0 mg/kg/injection, schedule: Q01DX005 (ip), vehicle: saline) of the same compound?
The T/C was 94 % of control and 111 % of control and 117 % of control.

What about the T/C (dose: 25.0 mg/kg/injection, schedule: Q01DX009 (ip), vehicle: saline) of the same compound?
Its T/C is 100 % of control and 120 % of control and 94 % of control.

And the T/C (dose: 30.0 mg/kg/injection, schedule: Q01DX Z (ip), vehicle: saline)?
Its T/C is 93 % of control.

What about the T/C (dose: 32.0 mg/kg/injection, schedule: Q## X032 (ip), vehicle: carboxymethylcellulose (CMC)) of the same compound?
Its T/C is 119 % of control.

What about the T/C (dose: 36.0 mg/kg/injection, schedule: Q## X016 (ip), vehicle: carboxymethylcellulose (CMC)) of the same compound?
Its T/C is 122 % of control.

And the T/C (dose: 37.5 mg/kg/injection, schedule: Q01DX009 (ip), vehicle: saline)?
The T/C was 108 % of control.

What about the T/C (dose: 37.5 mg/kg/injection, schedule: Q01DX010 (ip), vehicle: saline) of the same compound?
Its T/C is 97 % of control.

And the T/C (dose: 40.0 mg/kg/injection, schedule: Q01DX Z (oral), vehicle: carboxymethylcellulose (CMC))?
Its T/C is 101 % of control.

And the T/C (dose: 45.0 mg/kg/injection, schedule: Q01DX001 (ip), vehicle: carboxymethylcellulose (CMC))?
The T/C was 155 % of control.

And the T/C (dose: 45.0 mg/kg/injection, schedule: Q02DX008 (ip), vehicle: carboxymethylcellulose (CMC))?
The T/C was 157 % of control.

And the T/C (dose: 50.0 mg/kg/injection, schedule: Q01DX001 (ip), vehicle: saline)?
Its T/C is 96 % of control.

And the T/C (dose: 50.0 mg/kg/injection, schedule: Q01DX005 (ip), vehicle: saline)?
Its T/C is 111 % of control.

What about the T/C (dose: 67.0 mg/kg/injection, schedule: Q## X004 (ip), vehicle: carboxymethylcellulose (CMC)) of the same compound?
Its T/C is 151 % of control.

And the T/C (dose: 75.0 mg/kg/injection, schedule: Q01DX009 (ip), vehicle: saline)?
The T/C was 96 % of control.

What about the T/C (dose: 90.0 mg/kg/injection, schedule: Q01DX001 (sc), vehicle: carboxymethylcellulose (CMC)) of the same compound?
Its T/C is 156 % of control.

And the T/C (dose: 100.0 mg/kg/injection, schedule: Q01DX001 (ip), vehicle: carboxymethylcellulose (CMC))?
The T/C was 155 % of control.

And the T/C (dose: 100.0 mg/kg/injection, schedule: Q01DX001 (ip), vehicle: saline)?
Its T/C is 102 % of control.

And the T/C (dose: 100.0 mg/kg/injection, schedule: Q01DX009 (ip), vehicle: saline)?
The T/C was 104 % of control.

What about the T/C (dose: 144.0 mg/kg/injection, schedule: Q01DX001 (ip), vehicle: carboxymethylcellulose (CMC)) of the same compound?
The T/C was 158 % of control.

And the T/C (dose: 150.0 mg/kg/injection, schedule: Q01DX001 (ip), vehicle: carboxymethylcellulose (CMC))?
Its T/C is 157 % of control.

What about the T/C (dose: 180.0 mg/kg/injection, schedule: Q01DX001 (ip), vehicle: carboxymethylcellulose (CMC)) of the same compound?
The T/C was 154 % of control.

What about the T/C (dose: 180.0 mg/kg/injection, schedule: Q## X002 (ip), vehicle: carboxymethylcellulose (CMC)) of the same compound?
Its T/C is 109 % of control.

What about the T/C (dose: 200.0 mg/kg/injection, schedule: Q01DX001 (ip), vehicle: saline) of the same compound?
The T/C was 98 % of control.

What about the T/C (dose: 200.0 mg/kg/injection, schedule: Q01DX005 (ip), vehicle: saline) of the same compound?
Its T/C is 120 % of control and 106 % of control.

What about the T/C (dose: 200.0 mg/kg/injection, schedule: Q01DX009 (ip), vehicle: saline) of the same compound?
Its T/C is 105 % of control.

And the T/C (dose: 225.0 mg/kg/injection, schedule: Q01DX001 (ip), vehicle: carboxymethylcellulose (CMC))?
Its T/C is 150 % of control.

And the T/C (dose: 225.0 mg/kg/injection, schedule: Q## X004 (ip), vehicle: carboxymethylcellulose (CMC))?
Its T/C is 119 % of control.

And the T/C (dose: 270.0 mg/kg/injection, schedule: Q01DX001 (ip), vehicle: carboxymethylcellulose (CMC))?
The T/C was 124 % of control.

And the T/C (dose: 360.0 mg/kg/injection, schedule: Q01DX001 (sc), vehicle: carboxymethylcellulose (CMC))?
The T/C was 95 % of control.

What about the T/C (dose: 360.0 mg/kg/injection, schedule: Q## X003 (oral), vehicle: carboxymethylcellulose (CMC)) of the same compound?
The T/C was 110 % of control.

And the T/C (dose: 400.0 mg/kg/injection, schedule: Q01DX001 (ip), vehicle: carboxymethylcellulose (CMC))?
The T/C was 103 % of control.

And the T/C (dose: 400.0 mg/kg/injection, schedule: Q01DX009 (ip), vehicle: saline)?
The T/C was 94 % of control.

And the T/C (dose: 720.0 mg/kg/injection, schedule: Q01DX001 (oral), vehicle: carboxymethylcellulose (CMC))?
Its T/C is 109 % of control.

And the T/C (dose: 84.0 micrograms/kg/injection, schedule: Q01DX Z (ip), vehicle: saline)?
The T/C was 121 % of control.

What about the T/C (dose: 120.0 micrograms/kg/injection, schedule: Q01DX Z (ip), vehicle: saline) of the same compound?
Its T/C is 115 % of control.

And the T/C (dose: 290.0 micrograms/kg/injection, schedule: Q01DX Z (ip), vehicle: saline)?
The T/C was 151 % of control.

From PubChem BioAssay AID248 (DTP/NCI, 2004)
